Experimental data from the NIST ThermoML archive (doi:10.1021/je400260c).
± gives the expanded uncertainty stated by the source.

conditions: Crystal; DTA

| Normal melting temperature [°C] | Compound |
| --- | --- |
| 44.6 ± 0.9 | CCCCCCCCCCCC(=O)O [dodecanoic acid] |
| 63 ± 1.1 | CCCCCCCCCCCCCCCC(=O)O [hexadecanoic acid] |
| 69.8 ± 0.5 | CCCCCCCCCCCCCCCCCC(=O)O [octadecanoic acid] |
| 54.4 ± 0.5 | CCCCCCCCCCCCCC(=O)O [tetradecanoic acid] |
